# According to paper PMC10388327, “Dual Piperidine-Based Histamine H3 and Sigma-1 Receptor Ligands in the Treatment of Nociceptive and Neuropathic Pain” (Journal of Medicinal Chemistry, 2023):
# Counter-ions that a name gives are not always drawn. Like-named read-outs stand apart in the source and are kept apart here.
# What was measured:
# [1] = biological target: T1, human histamine H1 receptor (hH1R) (Homo sapiens, UniProt P35367); test: hH1R radioligand binding ([3H]mepyramine); settings: read-out: hH1R (Ki [nM] x̅ [CI 95%]); HEK293T cells; n = 3, triplicate
# T1 construct: SP (signal peptide) (N); FLAG (N); expressed in transfected cells
# T1 sequence (P35367 whole entry): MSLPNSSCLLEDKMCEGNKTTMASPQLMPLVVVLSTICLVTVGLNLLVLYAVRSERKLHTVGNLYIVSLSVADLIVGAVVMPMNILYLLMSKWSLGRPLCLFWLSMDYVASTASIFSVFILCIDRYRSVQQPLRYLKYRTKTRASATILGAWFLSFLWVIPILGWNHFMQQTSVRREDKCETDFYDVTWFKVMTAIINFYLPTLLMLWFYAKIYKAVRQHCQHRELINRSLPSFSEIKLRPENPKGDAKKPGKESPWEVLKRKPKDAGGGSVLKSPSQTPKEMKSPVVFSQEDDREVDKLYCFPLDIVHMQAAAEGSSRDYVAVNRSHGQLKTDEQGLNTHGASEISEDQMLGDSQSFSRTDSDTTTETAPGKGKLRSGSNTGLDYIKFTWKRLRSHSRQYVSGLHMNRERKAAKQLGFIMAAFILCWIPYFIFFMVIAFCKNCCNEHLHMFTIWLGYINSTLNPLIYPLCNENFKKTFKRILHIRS
# Experimental: (§1) To check the selectivity profile of our lead structures, radioligand binding studies at other histamine receptor subtypes were carried out. […] Obtained results clearly indicate the high selectivity of the tested derivatives toward human H3R (Table 3).
# (§2) Compounds (as oxalate salts) were tested in H3R in vitro binding studies using the methods described previously.[21]−[23] […] Radioligand binding experiments at the H1R, H2R, and H4R were performed as previously described in Rosier et al.[65] and Bartole et al.[66] […] Data represent mean values ± CI from three independent experiments, each performed in triplicate. The normalized competition binding curves were then fitted with a four-parameter logistic fit yielding IC50 values using the Prism 8.4.3 software (GraphPad, San Diego, CA). The Ki values were estimated from the Cheng–Prusoff equation.[69]
# [2] = system: mice; test: spontaneous locomotor activity; assay type: in vivo; settings: 15 mg/kg i.p.
# Experimental: The high sedative activity of analgesics is considered an undesirable property, which may lead to an incorrect or ambiguous interpretation of the in vivo results. Moreover, it may limit the potential clinical application of new drug candidates.
# This test was carried out according to the procedure described elsewhere.[84] The animals were injected (i.p.) with 12 at doses of 5, 15, and 30 mg/kg and placed in the activity cages individually (30 min before the experiment). The number of light-beam crossings was counted in each group during the next 30 min in 10 min intervals.
# [3] = system: mice; test: motor coordination in the rotarod test; assay type: in vivo; settings: 15 mg/kg i.p.; 6, 18 and 24 rpm
# Excerpt: The neurotoxicity of the new compounds can result in impaired motor functions of the experimental animals, which may subsequently cause false interpretation of the results of in vivo tests. Understandably, neurotoxicity is also the frequent reason for eliminating the tested compound from further studies. To minimize that risk, we investigated the influence of our lead structures on motor coordination in the rotarod test, which is the classical test used for assessing motor coordination and balance in rodents. It provides a quick and simple estimation of neuromuscular coordination. […] The time spent on the rotarod apparatus was 60 s for each control mouse.
# The test was carried out on the semiautomatic rotarod apparatus (Rotarod apparatus Panlab/Harvard Apparatus, LE 8200, Spain) according to the method previously described in the literature.[85] The mice were trained for 3 days on the rod rotating at a constant speed of 18 rotations per minute (rpm). During each training session, the animals were placed on the rod for 3 min with an unlimited number of trials. On the test day (24 h after the final training trial), 30 min before the rotarod test, the mice were pretreated (i.p.) with the test compound (15 mg/kg). Then, the animals were tested on the rotarod revolving at 6, 18, and then 24 rpm. Motor impairments, defined as the inability to remain on the rotating rod for 1 min, were measured at each speed.
# [4] = biological target: T2, sigma-2 receptor (σ2R) (Rattus norvegicus, UniProt Q5U3Y7); test: σ2R radioligand binding ([3H]DTG); settings: read-out: σ2R Ki [nM] x̄ [CI 95%]; mean [CI 95%]
# T2 construct: The thawed membrane preparation of rat liver was incubated; from tissue; host or cells: Sprague-Dawley rat liver membranes
# T2 sequence (Q5U3Y7 1-176): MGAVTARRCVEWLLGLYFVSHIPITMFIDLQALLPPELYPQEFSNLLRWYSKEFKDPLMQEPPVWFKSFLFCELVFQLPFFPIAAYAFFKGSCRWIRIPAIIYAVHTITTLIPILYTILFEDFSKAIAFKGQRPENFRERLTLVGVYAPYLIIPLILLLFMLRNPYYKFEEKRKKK
# [5] = parallel artificial membrane permeability assay (PAMPA); assay type: in vitro ADME; settings: 100 μM in PBS pH 7.4, RT, read-out: Pe (permeability coefficient)
# [6] = system: mice; test: formalin test; assay type: in vivo; settings: for ED50: Mus musculus, ip
# Excerpt: The formalin test is one of the most useful screening models for testing potentially clinically relevant antinociceptive molecules because of its ease of administration, standardization, and validation with reference drugs.[50] The subcutaneous injection of formalin results in a focal injury that stimulates and then damages sensory endings. Two distinct phases of nociceptive response are associated with the immediate activation of nociceptors and sensitization of spinal reflex circuits during phase I and II responses, respectively.[51]
# The procedure used was essentially the same as that described previously.[86],[87] Briefly, 20 μL of 1.5% formalin solution was injected intraplantarly (i.pl.) into the mice right hind paw using a 26-gauge needle. […] The total time (in seconds) spent on licking the injected paw during periods of 0–5 min (early phase, neurogenic) and 15–30 min (late phase, inflammatory) was measured and was considered as an indicator of nociceptive behavior. Before formalin injection, different groups of mice were treated i.p. with the vehicle (10 mL/kg, negative control) and the varying doses of 12 (5, 10, 15, and 30 mg/kg).
# [7] = biological target: T3, human recombinant histamine H3R (Homo sapiens, UniProt Q9Y5N1); test: hH3R radioligand binding ([3H]Nα-methylhistamine depletion assay); settings: read-out: hH3R Ki [nM] x̄ [CI 95%]; mean [CI 95%]; HEK-293 cells
# T3 construct: expressed in transfected cells
# T3 sequence (Q9Y5N1 whole entry): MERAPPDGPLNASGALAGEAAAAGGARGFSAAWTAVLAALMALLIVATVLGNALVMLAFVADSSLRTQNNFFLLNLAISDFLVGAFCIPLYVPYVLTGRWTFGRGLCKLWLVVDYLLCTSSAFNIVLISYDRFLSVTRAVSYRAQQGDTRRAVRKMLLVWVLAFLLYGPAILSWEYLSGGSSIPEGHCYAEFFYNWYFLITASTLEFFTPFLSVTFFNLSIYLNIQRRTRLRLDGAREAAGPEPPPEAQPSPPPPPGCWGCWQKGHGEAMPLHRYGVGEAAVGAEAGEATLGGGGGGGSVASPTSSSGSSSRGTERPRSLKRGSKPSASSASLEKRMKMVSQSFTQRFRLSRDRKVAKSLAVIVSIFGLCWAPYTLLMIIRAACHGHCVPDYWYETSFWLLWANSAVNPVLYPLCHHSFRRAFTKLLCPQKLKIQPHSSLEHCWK
# [8] = biological target: T4, human histamine H2 receptor (hH2R) (Homo sapiens, UniProt P25021); test: hH2R radioligand binding ([3H]UR-DE257); settings: HEK293T cells, n = 3, triplicate
# T4 construct: SP (signal peptide) (N); FLAG (N); expressed in transfected cells
# T4 sequence (P25021 whole entry): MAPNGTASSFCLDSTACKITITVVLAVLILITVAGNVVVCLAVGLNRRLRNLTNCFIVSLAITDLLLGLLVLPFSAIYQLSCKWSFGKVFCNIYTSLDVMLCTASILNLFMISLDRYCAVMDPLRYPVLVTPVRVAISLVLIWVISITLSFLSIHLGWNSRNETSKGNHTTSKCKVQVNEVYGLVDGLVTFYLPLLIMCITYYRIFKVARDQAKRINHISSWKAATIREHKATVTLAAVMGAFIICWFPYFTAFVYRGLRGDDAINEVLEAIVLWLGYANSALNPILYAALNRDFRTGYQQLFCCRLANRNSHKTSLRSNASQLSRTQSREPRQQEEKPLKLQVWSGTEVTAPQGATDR
# Experimental: as §1, §2
# [9] = system: sigma-1 receptor (σ1R); test: σ1R radioligand binding ([3H](+)-pentazocine); set-up: species or system guinea pig; settings: ratio of σ2R Ki to σ1R Ki
# [10] = biological target: T5, sigma-1 receptor (σ1R) (Cavia porcellus, UniProt Q60492); test: σ1R radioligand binding ([3H](+)-pentazocine); set-up: species or system guinea pig; settings: read-out: σ1R Ki [nM] x̄ [CI 95%]; mean [CI 95%]
# T5 construct: The thawed membrane preparation of the guinea pig brain cortex was incubated; from tissue; host or cells: male Dunkin-Hartley guinea pig brain cortex membranes
# T5 sequence (Q60492 whole entry): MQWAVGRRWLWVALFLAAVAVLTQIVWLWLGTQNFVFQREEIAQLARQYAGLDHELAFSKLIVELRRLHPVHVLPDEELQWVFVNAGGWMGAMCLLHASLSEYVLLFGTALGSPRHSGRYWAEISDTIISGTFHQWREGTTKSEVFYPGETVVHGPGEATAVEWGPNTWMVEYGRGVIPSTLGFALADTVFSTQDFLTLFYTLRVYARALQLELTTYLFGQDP
# [11] = biological target: T6, human histamine H4 receptor (hH4R) (Homo sapiens, UniProt Q9H3N8); test: hH4R radioligand binding ([3H]UR-PI294); settings: read-out: hH4R (Ki [nM] x̅ [CI 95%]); HEK293T cells; n = 3, triplicate
# T6 construct: SP (signal peptide) (N); FLAG (N); expressed in transfected cells
# T6 sequence (Q9H3N8 whole entry): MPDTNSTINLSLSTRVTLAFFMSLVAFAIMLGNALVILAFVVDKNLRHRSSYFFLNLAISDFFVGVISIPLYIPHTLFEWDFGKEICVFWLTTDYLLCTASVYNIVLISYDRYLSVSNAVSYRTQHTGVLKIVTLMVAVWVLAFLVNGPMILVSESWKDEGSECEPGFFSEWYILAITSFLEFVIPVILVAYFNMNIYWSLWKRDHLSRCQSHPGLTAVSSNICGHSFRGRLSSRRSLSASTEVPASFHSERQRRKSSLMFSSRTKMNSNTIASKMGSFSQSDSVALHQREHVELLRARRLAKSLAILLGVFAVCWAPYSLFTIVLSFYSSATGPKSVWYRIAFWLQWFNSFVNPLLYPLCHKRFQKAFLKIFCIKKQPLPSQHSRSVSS
# Experimental: as §1, §2
# [12] = biological target: T3, human recombinant histamine H3R; settings: read-out: hH3R Ki [nM] x̄ [CI 95%]; mean [CI 95%]; recalculated from published data; cited from earlier work
# [13] = biological target: H3R; set-up: method as in PMID 30359639; settings: Figure 1, compounds evaluated in clinical trials; cited from earlier work
# [14] = system: mice; test: loperamide-induced antinociception (paw pressure, struggle response latency); assay type: in vivo, Female CD1 mice
# [15] = observation during crystallization
# [16] = pKa determination by potentiometric titration; assay type: physicochemical; settings: for pKa: aqueous solution
# Experimental: In addition, we tested the amino alcohol fragments of these compounds to carefully monitor the influence of individual protonated nitrogen atoms on the obtained pKa values (Figure 4). […] Based on a previously modified potentiometric procedure,[27],[28] a series of titrations were performed, and the pKa values were determined using the Kostrowicki and Liwo algorithm.[29],[30] […] That explains the surprising result of free base crystallization attempts where iodide salt was obtained instead of the neutral form. On the other hand, in the same environment, KSK94 exists in two forms: the monoprotonated form [HL^+] (20.56%) and the free ligand [L] (77.72%, Figure 5). […] KSK68 can be characterized as a basic ligand with pKa1 = 4.9 (pyridine N) and pKa2 = 8.4 (piperidine N). The pKa values are consistent with those determined by the same procedure for the corresponding amino alcohol 3-(4-(pyridin-4-yl)piperidin-1-yl)propan-1-ol (Figure 4). […] A similarly low pKa2 value for the N7 piperazine nitrogen atom was also determined for the corresponding amino alcohol 3-(4-(pyridin-4-yl)piperazin-1-yl)propan-1-ol (Figure 4), which is in agreement with the value obtained for 1-phenyl-4-methyl piperazine reported in the literature.[31] […] The lowest value was determined for 4-nitrophenyl, and the highest was for 2-methylphenyl derivatives.[32]
# The potentiometric microtitration was performed in a thermostated 20 mL cell using a CerkoLab microtitration unit fitted with a pH electrode (Hydromet ERH-13-6). The electrode was calibrated with the use of buffer solutions: pH = 4.00, 7.00, and 10.00. Titrant T (0.1 M KOH) was standardized according to the general analytical procedure and protected from carbon dioxide. Double distilled water with a conductivity of about 0.18 mS/cm was used to prepare all aqueous solutions. DMSO (HPLC grade, 99.5%) was supplied by Sigma Aldrich. The concentration of the titrant solution (D) was 0.0025–0.005 M. The solubilization procedure was follows: The appropriate amount of KSK compound was dissolved in 1 mL 0.1 M HCl and 1 mL DMSO to prepare a 25 mL stock solution. The developed solubilization system can be recommended for poorly soluble derivatives. The analytical procedure was a follows: volume V0 = 4.5 mL of titrant D was titrated with 0.1 M titrant T using the CerkoLab System equipped with a 5 mL syringe pump.
# [17] = 0–5 min after formalin, read-out: ED50, formalin test phase I (acute phase)
# [18] = 15–30 min after formalin, read-out: ED50, formalin test phase II (late phase)
# [19] = Figure 5, species distribution from titration curves
# [20] = experimental, potentiometric titration
compound,measurement,setting,value
"c1ccc(-c2ccc(OCCCN3CCCCCC3)cc2)cc1 [Compound 3, 1-(3-([1,1′-Biphenyl]-4-yloxy)propyl)azepane Oxalate]",Ki,[1],7620 nM
same,influence on spontaneous locomotor activity (sedative effect),[2],high and significant sedative effects
same,"influence on motor coordination, time on rotarod",[3],significantly impaired the motor coordination of mice
same,Ki,[4],25 nM
same,"Papp at 5 h, 100 µM",[5],6.57 ×10⁻⁶ cm/s
same,ED50,[6]; [17],14.2 mg/kg
same,ED50,[6]; [18],13.3 mg/kg
same,Ki,[7],4.3 nM
same,Ki,[8]; read-out: hH2R (Ki [nM] x̅ [CI 95%]),> 10000 nM
same,σ2/σ1 ratio,[9],13.2
same,Ki,[10],1.9 nM
same,Ki,[11],> 10000 nM
"c1ccc(Nc2ccc(OCCCN3CCCCC3)cc2)cc1 [Compound 7, N-Phenyl-4-(3-(piperidin-1-yl)propoxy)aniline Oxalate]",Ki,[1],> 10000 nM
same,influence on spontaneous locomotor activity (sedative effect),[2],high and significant sedative effects
same,"influence on motor coordination, time on rotarod",[3],significantly decreased the time spent on the rod at 18 and 24 rpm
same,Ki,[4],116 nM
same,"Papp at 5 h, 100 µM",[5],10.6 ×10⁻⁶ cm/s
same,ED50,[6]; [17],11.9 mg/kg
same,ED50,[6]; [18],11.7 mg/kg
same,"ED50, formalin test phase I (acute phase)","[6]; i.p., 0–5 min after formalin",11.95 mg/kg
same,"ED50, formalin test phase II (late phase)","[6]; i.p., 15–30 min after formalin",11.71 mg/kg
same,Ki,[7],5.2 nM
same,Ki,[8],> 10000 nM
same,σ2/σ1 ratio,[9],24.2
same,Ki,[10],4.8 nM
same,Ki,[11],> 10000 nM
"c1ccc(-c2ccc(OCCCCCN3CCCCC3)cc2)cc1 [Compound 10, 1-(5-([1,1′-Biphenyl]-4-yloxy)pentyl)piperidine Oxalate]",Ki,[4],19 nM
same,Ki,[10],140 nM
same,Ki,[12],21.7 nM
"c1ccc(-c2ccc(OCCCCCCN3CCCCC3)cc2)cc1 [Compound 11, 1-(6-([1,1′-Biphenyl]-4-yloxy)hexyl)piperidine Oxalate]",Ki,[4],46 nM
same,Ki,[10],118 nM
same,Ki,[12],88.9 nM
"Cc1cc(OCCN2CCOCC2)nn1-c1ccc2ccccc2c1 [Compound S1RA, 4-[2-[[5-methyl-1-(2-naphthalenyl)1H-pyraol-3-yl]oxy]ethyl]morpholine hydrochloride]",Ki,[13],> 10000 nM
same,"Papp at 5 h, 100 µM",[5],5.26 ×10⁻⁶ cm/s
same,in vivo σ1 receptor functional profile,[14]; concluded from PRE-084 reversal,σ1 receptor antagonists
same,effect on loperamide-induced antinociception,"[14]; i.pl. with loperamide 4 mg/kg s.c., injected paw",significantly and dose-dependently (50–100 μg) increased the antinociceptive effect induced by loperamide
same,effect alone on struggle response latency,"[14]; i.pl., S1RA 100 μg, 12 25 μg, 450 g pressure",did not change the response to the mechanical stimulus
c1cc(OCCCN2CCCCC2)ccc1CN1CCCCC1 [JNJ-5207852],Ki,[13],0.3 nM
O=C(c1ccc(OCCCN2CCC(c3ccncc3)CC2)cc1)C1CC1 [KSK68],solubility in water,[15],more soluble in H2O than KSK67
same,pK of equilibrium H2L+2 = H+ + HL+,[16]; [19],4.94
same,pK of equilibrium HL+ = H+ + L0,[16]; [19],8.38
same,monoprotonated form [HL+],[16]; aqueous solution at physiological pH,approximately 90%
same,pKa,"[16]; experimental, potentiometric titration, read-out: pKa1",4.9
same,pKa,"[16]; experimental, potentiometric titration, read-out: pKa2",8.4
same,pKa1,[16]; [20],4.94
same,pKa2,[16]; [20],8.38
